Assay results from US9388142B2, “Quinazolinone derivatives as PARP inhibitors” (MERCK PATENT GMBH, priority 2012, dated 2016).

Experiments:
His-tagged Parp-1 = molecular target: T1, His-tagged Parp-1 (Homo sapiens, UniProt P09874); experiment: PARP-1 autoparsylation assay (HTRF); assay type: biochemical
T1 construct: purchased Enzo Life Sciences GmbH, Lörrach, Germany
From the text: Description of the PARP1 Assay
Biochemical Activity Testing of PARP-1: Autoparsylation Assay
The autoparsylation assay is run in two steps: the enzymatic reaction in which His-tagged Parp-1 transfers biotinylated ADP-ribose/ADP-ribose to itself from biotinylated NAD/NAD as co-substrate and the detection reaction where a time resolved FRET between cryptate labelled anti-His antibody bound to the His tag of the enzyme and Xlent® labelled-streptavidin bound the biotin-parsylation residue is analysed. The autoparsylation activity is detectable directly via the increase in HTRF signal.
The autoparsylation assay is performed as 384-well HTRF® (Cisbio, Codolet, France) assay format in Greiner low volume nb 384-well microtiter plates. 35 nM His-tagged Parp-1 (human, recombinant, Enzo Life Sciences GmbH, Lörrach, Germany) and a mixture of 125 nM bio-NAD (Biolog, Life science Inst., Bremen, Germany) and 800 nM NAD as co-substrate are incubated in a total volume of 6 μl (100 mM Tris/HCl, 4 mM Mg-chloride, 0.01% IGEPAL® CA630, 1 mM DTT, 0.5% DMSO, pH 8, 13 ng/μl activated DNA (BPS Bioscience, San Diego, US)) in the absence or presence of the test compound (10 dilution concentrations) for 150 min at 23° C. The reaction is stopped by the addition of 4 μl of the Stop/detection solution (70 nM SA-Xlent® (Cisbio, Codolet, France), 2.5 nM Anti-His-K® (Eu-labelled anti-His, Cisbio, Codolet, France) in 50 mM HEPES, 400 mM KF, 0.1% BSA, 20 mM EDTA, pH 7.0). After 1 h incubation at room temperature the HTRF iss measured with an Envision multimode reader (Perkin Elmer LAS Germany GmbH) at excitation wavelength 340 nm (laser mode) and emission wavelengths 615 nm and 665 nm. The ratio of the emission signals is determined. The full value used is the inhibitor-free reaction. The pharmacological zero value used is Olaparib (LClabs, Woburn, US) in a final concentration of 1 The inhibitory values (IC50) are determined using either the program Symyx Assay Explorer® or Condosseo® from GeneData.

[1] = molecular target: GST-tagged Tankyrase-2 (873-1166 aa) (Homo sapiens, UniProt Q9H2K2); experiment: biochemical
Sequence of GST-tagged Tankyrase-2 (873-1166 aa) (Q9H2K2 873-1166): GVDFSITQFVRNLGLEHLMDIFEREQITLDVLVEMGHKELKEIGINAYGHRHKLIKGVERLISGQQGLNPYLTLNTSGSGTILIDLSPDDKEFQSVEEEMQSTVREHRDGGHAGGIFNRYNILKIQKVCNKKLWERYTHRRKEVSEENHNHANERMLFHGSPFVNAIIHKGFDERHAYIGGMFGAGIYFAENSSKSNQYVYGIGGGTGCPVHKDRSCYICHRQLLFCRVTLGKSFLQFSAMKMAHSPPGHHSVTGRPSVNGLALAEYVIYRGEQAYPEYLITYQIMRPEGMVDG
From the text: (§1) aq (aqueous), h (hour), g (gram), L (liter), mg (milligram), MHz (Megahertz), min. (minute), mm (millimeter), mmol (millimole), mM (millimolar), m.p. (melting point), eq (equivalent), mL (milliliter), L (microliter), ACN (acetonitrile), AcOH (acetic acid), CDCl3 (deuterated chloroform), CD3OD (deuterated methanol), CH3CN (acetonitrile), c-hex (cyclohexane), DCC (dicyclohexyl carbodiimide), DCM (dichloromethane), DIC (diisopropyl carbodiimide), DIEA (diisopropylethyl-amine), DMF (dimethylformamide), DMSO (dimethylsulfoxide), DMSO-d6 (deuterated dimethylsulfoxide), EDC (1-(3-dimethyl-amino-propyl)-3-ethylcarbodiimide), ESI (Electro-spray ionization), EtOAc (ethyl acetate), Et2O (diethyl ether), EtOH (ethanol), HATU (dimethylamino-([1,2,3]triazolo[4,5-b]pyridin-3-yloxy)-methylene]-dimethylammonium hexafluorophosphate), HPLC (High Performance Liquid Chromatography), i-PrOH (2-propanol), K2CO3 (potassium carbonate), LC (Liquid Chromatography), MeOH (methanol), MgSO4 (magnesium sulfate), MS (mass spectrometry), MTBE (Methyl tert-butyl ether), NaHCO3 (sodium bicarbonate), NaBH4 (sodium borohydride), NMM (N-methyl morpholine), NMR (Nuclear Magnetic Resonance), PyBOP (benzotriazole-1-yl-oxy-trispyrrolidino-phosphonium hexafluorophosphate), RT (room temperature), Rt (retention time), SPE (solid phase extraction), TBTU (2-(1-H-benzotriazole-1-yl)-1,1,3,3-tetramethyluromium tetrafluoro borate), TEA (triethylamine), TFA (trifluoroacetic acid), THF (tetrahydrofuran), TLC (Thin Layer Chromatography), UV (Ultraviolet). Description of the In Vitro Assays Abbreviations: GST=Glutathione-S-transferase FRET=Fluorescence resonance energy transfer HTRF®=(homogenous time resolved fluorescence) HEPES=4-(2-hydroxyethyl)-1-piperazine ethanesulfonic acid buffer DTT=Dithiothreitol BSA=bovine serum albumin CHAPS=detergent; CHAPS=3[(3-cholamidopropyl)dimethylammonio]-1-propanesulfonate Streptavidin-XLent® is a high grade streptavidin-XL665 conjugate for which the coupling conditions have been optimized to yield a conjugate with enhanced performances for some assays, particularly those requiring high sensitivity.
(§2) The autoparsylation assay is run in two steps: the enzymatic reaction in which GST-tagged Tankyrase-1, resp Tankyrase-2 transferred biotinylated ADP-ribose to itself from biotinylated NAD as co-substrate and the detection reaction where a time resolved FRET between cryptate labelled anti-GST bound to the GST tag of the enzyme and Xlent® labelled-streptavidin bound the biotin-parsylation residue is analysed. The autoparsylation activity was detectable directly via the increase in HTRF signal.
(§3) The autoparsylation assay is performed as 384-well HTRF® (Cisbio, Codolet, France) assay format in Greiner low volume nb 384-well microtiter plates and is used for high throughput screen. […] The reaction is stopped by the addition of 1 μl 50 mM EDTA solution. […] The ratio of the emission signals is determined. The full value used is the inhibitor-free reaction. […] The inhibitory values (IC50) are determined using either the program Symyx Assay Explorer® or Condosseo® from GeneData.

[2] = molecular target: T2, GST-tagged Tankyrase-1 (1023-1327 aa) (Homo sapiens, UniProt O95271); experiment: biochemical; conditions: read-out: IC50 tankyrase 1 (enzyme assay)
T2 construct: GST-tagged Tankyrase-1 (1023-1327 aa)
T2 sequence (O95271 1023-1327): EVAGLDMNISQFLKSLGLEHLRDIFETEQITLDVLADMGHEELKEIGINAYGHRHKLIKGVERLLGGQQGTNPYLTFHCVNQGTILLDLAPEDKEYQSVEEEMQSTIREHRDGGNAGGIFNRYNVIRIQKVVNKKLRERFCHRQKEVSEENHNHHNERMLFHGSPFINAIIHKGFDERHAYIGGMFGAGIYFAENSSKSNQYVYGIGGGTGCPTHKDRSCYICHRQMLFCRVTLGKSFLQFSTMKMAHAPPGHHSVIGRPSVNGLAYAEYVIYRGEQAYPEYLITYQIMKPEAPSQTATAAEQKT
From the text: as §1, §2, §3

tankyrase 1/2 = experiment: Cellular inhibition of tankyrase: increase of Axin2 level in DLD1 cells (Luminex); assay type: cell-based; conditions: read-out: EC50 tankyrase 1/2 (cell assay), 24 hours
Experimental: Measurement of Cellular Inhibition of Tankyrase
Cells of the colon carcinoma cell line DLD1 are plated in 96 well plates with 1.5×10^4 cells per well. Next day, cells are treated with a serial dilution of test compound in seven steps as triplicates with a final DMSO concentration of 0.3%. After 24 hours, cells are lysed in lysis buffer (20 mM Tris/HCl pH 8.0, 150 mM NaCl, 1% NP40, 10% Glycerol) and lysates are cleared by centrifugation through a 96 well filter plate (0.65 μm). […] The amount of isolated Axin2 protein is determined in a Luminex^200 machine (Luminex Corporation) according to the manufacturer's instruction by counting 100 events per well. […] For analysis, the obtained data are normalized against the untreated solvent control and fitted for determination of the EC50 values using the Assay Explorer software (Accelrys).

T1 sequence (P09874 whole entry): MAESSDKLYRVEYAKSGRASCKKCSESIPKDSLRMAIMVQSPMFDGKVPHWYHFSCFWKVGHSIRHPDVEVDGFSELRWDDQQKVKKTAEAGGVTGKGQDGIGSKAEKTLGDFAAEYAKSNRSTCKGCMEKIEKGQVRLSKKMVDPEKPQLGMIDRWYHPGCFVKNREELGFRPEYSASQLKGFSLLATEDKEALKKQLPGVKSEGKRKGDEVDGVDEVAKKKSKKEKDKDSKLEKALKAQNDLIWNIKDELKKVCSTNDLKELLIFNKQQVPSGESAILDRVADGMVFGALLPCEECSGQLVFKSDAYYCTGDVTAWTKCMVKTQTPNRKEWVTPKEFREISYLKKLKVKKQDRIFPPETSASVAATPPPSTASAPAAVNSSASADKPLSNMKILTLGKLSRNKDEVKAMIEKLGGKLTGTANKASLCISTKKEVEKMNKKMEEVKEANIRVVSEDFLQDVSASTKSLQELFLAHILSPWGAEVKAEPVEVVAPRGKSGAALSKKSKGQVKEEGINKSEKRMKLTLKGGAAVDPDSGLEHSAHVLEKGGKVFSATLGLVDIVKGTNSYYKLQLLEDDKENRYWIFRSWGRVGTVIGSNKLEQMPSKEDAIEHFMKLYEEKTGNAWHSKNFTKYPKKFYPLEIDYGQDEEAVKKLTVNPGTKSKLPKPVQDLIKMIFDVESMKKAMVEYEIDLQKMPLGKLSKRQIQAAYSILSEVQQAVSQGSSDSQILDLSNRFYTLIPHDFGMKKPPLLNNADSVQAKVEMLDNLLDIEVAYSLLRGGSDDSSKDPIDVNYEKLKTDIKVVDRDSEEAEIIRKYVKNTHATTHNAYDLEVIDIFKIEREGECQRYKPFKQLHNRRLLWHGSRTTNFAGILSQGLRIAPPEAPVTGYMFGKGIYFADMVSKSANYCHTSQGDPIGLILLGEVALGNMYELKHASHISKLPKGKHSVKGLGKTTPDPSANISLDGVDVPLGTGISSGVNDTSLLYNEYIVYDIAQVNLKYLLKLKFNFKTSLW

SMILES | IC50 (His-tagged Parp-1) [nM] | IC50 [1] [nM] | IC50 [2] [nM] | EC50 (tankyrase 1/2) [nM]
CCC(O)(CC)c1ccc(-c2nc3ccc(F)cc3c(=O)[nH]2)cc1 [Compound A14, 2-[4-(1-ethyl-1-hydroxy-propyl)phenyl]-6-fluoro-3H-quinazolin-4-one] | 300 to 3000 | 300 to 3000 | < 300 | < 300
Cc1cc(F)cc2c(=O)[nH]c(-c3ccc(N4CCC(CO)CC4)cc3)nc12 [Compound A31, 6-fluoro-2-[4-(4-hydroxymethyl-piperidin-1-yl)-phenyl]-8-methyl-3H-quinazolin-4-one] | 300 to 3000 | 300 to 3000 | 300 to 3000 | < 300
Cc1cc(F)cc2c(=O)[nH]c(-c3ccc(N4CCC(O)CC4)cc3)nc12 [Compound A29, 6-fluoro-2-[4-(4-hydroxy-piperidin-1-yl)-phenyl]-8-methyl-3H-quinazolin-4-one] | < 300 | 300 to 3000 | 300 to 3000 | < 300
O=c1[nH]c(-c2ccc(C3(O)CCCC3)cc2)nc2ccc(F)cc12 [Compound A16, 6-fluoro-2-[4-(1-hydroxycyclopentyl)phenyl]-3H-quinazolin-4-one] | 300 to 3000 | 300 to 3000 | < 300 | 300 to 3000
CC(C)(O)c1ccc(-c2nc3c(F)cc(F)c(F)c3c(=O)[nH]2)cc1 [Compound A26, 5,6,8-trifluoro-2-[4-(1-hydroxy-1-methyl-ethyl)-phenyl]-3H-quinazolin-4-one] | 300 to 3000 | 300 to 3000 | < 300 | < 300
